According to patent publication US20260070945A1, “MACROCYCLIC IMMUNOMODULATORS” (Bristol-Myers Squibb Company, priority 2022, published 2026):
*1 amine or outer side, *2 acyl side, *3 side chain or, on linkers, in order; H or OH if unused. Where a SMILES comes first, the peptide text is derived from it. Bridges are numbered along the chain shown (N, C = ends). [ ]: non-standard residue; d: D form. The star is where a group is joined. ξ: configuration not given here. Phe(3-CF3) = N[C@@H](Cc1cccc(C(F)(F)F)c1)C(=O)O; Phe(4-COOH) = N[C@@H](Cc1ccc(C(=O)O)cc1)C(=O)O; Bip = N[C@@H](Cc1ccc(-c2ccccc2)cc1)C(=O)O; Phe(3-F) = N[C@@H](Cc1cccc(F)c1)C(=O)O; Phe(3-Me) = Cc1cccc(C[C@H](N)C(=O)O)c1; βAsp = O=C(O)[C@H](CC(=O)[*:2])N[*:1]; NH(CH2)12COOH = O=C(O)CCCCCCCCCCCCN*; Val(3-OH) = CC(C)(O)[C@H](N)C(=O)O; 2Thi = N[C@@H](Cc1cccs1)C(=O)O; Cha = N[C@@H](CC1CCCCC1)C(=O)O; Cit = NC(=O)NCCC[C@H](N)C(=O)O; Ile(3ξ) = CCC(C)[C@H](N)C(=O)O; Carboxymethyl = O=C(O)C*; NMeA = CN[C@@H](C)C(=O)O; Orn = NCCC[C@H](N)C(=O)O; Aun = NCCCCCCCCCCC(=O)O; Dab = NCC[C@H](N)C(=O)O; AEEA = NCCOCCOCC(=O)O

biological target: T1, PD-1/PD-L1 interaction (PE-labeled human PD-L1-Ig binding to Jurkat cell line over-expressing human PD-1) (Homo sapiens, UniProt Q15116); assay: Jurkat-PD-1 Cell Binding High-Content Screening Assay (CBA); settings: Jurkat-hPD-1 cells, PE-labeled PD-L1-Ig 20 nM final; read-out: Jurkat HPD1 PDL1 IC50
T1 construct: expressed in transfected cells; host or cells: Jurkat
Method in brief: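 Binding of 20 nM (final) PE-tagged PD-L1-Ig to compound-pretreated Jurkat-hPD-1 cells was measured by high-content imaging after 1 h. Pretreatment ran 2 h at 37 °C in DMEM with 10% fetal calf serum.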

T1 sequence (Q15116 25-288): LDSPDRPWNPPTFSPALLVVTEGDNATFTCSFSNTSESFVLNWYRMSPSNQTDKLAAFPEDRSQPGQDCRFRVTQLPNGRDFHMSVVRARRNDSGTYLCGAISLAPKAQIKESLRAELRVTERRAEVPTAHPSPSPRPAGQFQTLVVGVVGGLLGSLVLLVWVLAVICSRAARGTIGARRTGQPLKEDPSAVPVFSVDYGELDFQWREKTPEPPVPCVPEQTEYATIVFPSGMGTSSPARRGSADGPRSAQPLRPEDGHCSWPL

IC50 [nM] | SMILES
76.2 | Cc1cccc(C[C@@H]2NC(=O)[C@H](CC(=O)O)NC(=O)[C@H](Cc3ccc(C(=O)O)cc3)NC(=O)[C@H](Cc3ccc(OCC(=O)O)cc3)NC(=O)CSC[C@@H](C(=O)NCC(=O)N[C@@H](CCC(=O)O)C(=O)NCCOCCOCC(=O)N[C@@H](CC(=O)NCCOCCOCC(=O)NCCCCCCCCCCC(=O)O)C(=O)O)NC(=O)[C@H](CO)NC(=O)[C@H](C(C)C)NC(=O)[C@H](CC(C)C)NC(=O)[C@H](CC(N)=O)NC(=O)[C@@H](CC(C)C)NC(=O)[C@H](C)N(C)C(=O)[C@H](C(C)C)NC(=O)[C@H](Cc3ccc(-c4ccccc4)cc3)NC(=O)[C@H](CC(C)C)NC2=O)c1 [Example 1021] ({CH2CO}-Y(Carboxymethyl)[Phe(4-COOH)]D[Phe(3-Me)]L[Bip]V[NMeA][dL]NLVSCGE[AEEA][βAsp][AEEA][Aun]-OH; thioether N-14)
8.4 | CC(C)C[C@@H]1NC(=O)[C@H](Cc2c[nH]c3ccccc23)NC(=O)[C@H](CC(=O)O)NC(=O)[C@H](Cc2ccc(C(=O)O)cc2)NC(=O)[C@H](Cc2ccc(OCC(=O)O)cc2)NC(=O)CSC[C@@H](C(=O)N[C@@H](CCCN)C(=O)NCCOCCOCC(=O)NCCCCCCCCCCC(=O)O)NC(=O)[C@H](CCC(=O)O)NC(=O)[C@H](C(C)C)NC(=O)[C@H](CC2CCCCC2)NC(=O)[C@H](CCN)NC(=O)[C@@H](CC(C)C)NC(=O)[C@H](C)N(C)C(=O)[C@H](C(C)C)NC(=O)[C@H](Cc2ccc(-c3ccccc3)cc2)NC1=O [Example 2126] ({CH2CO}-Y(Carboxymethyl)[Phe(4-COOH)]DWL[Bip]V[NMeA][dL][Dab][Cha]VEC[Orn][AEEA][Aun]-OH; thioether N-14)
27.7 | Cc1cccc(C[C@@H]2NC(=O)[C@H](CC(=O)O)NC(=O)[C@H](Cc3ccc(OCC(=O)O)cc3)NC(=O)[C@H]([C@@H](C)O)NC(=O)CSC[C@@H](C(=O)N[C@@H](CCN)C(=O)NCCOCCOCC(=O)NCCCCCCCCCCC(=O)O)NC(=O)[C@H](CCC(=O)O)NC(=O)[C@H](C(C)(C)O)NC(=O)[C@H](CC3CCCCC3)NC(=O)[C@H](CCN)NC(=O)[C@@H](CC(C)C)NC(=O)[C@H](C)N(C)C(=O)[C@H](Cc3ccc(OCC(=O)O)cc3)NC(=O)[C@H](Cc3ccc(-c4ccccc4)cc3)NC(=O)[C@H](Cc3cccc(F)c3)NC2=O)c1 [Example 1424] ({CH2CO}-TY(Carboxymethyl)D[Phe(3-Me)][Phe(3-F)][Bip]Y(Carboxymethyl)[NMeA][dL][Dab][Cha][Val(3-OH)]EC[Dab][AEEA][Aun]-OH; thioether N-14)
11.2 | COC[C@@H]1NC(=O)CSC[C@@H](C(=O)N[C@@H](CCN)C(=O)NCCCCCCCCCCCCC(=O)O)NC(=O)[C@H](CC(=O)O)NC(=O)[C@H](C(C)(C)O)NC(=O)[C@H](CC2CCCCC2)NC(=O)[C@H](CCN)NC(=O)[C@@H](CC(C)C)NC(=O)[C@H](C)N(C)C(=O)[C@H](CCCNC(N)=O)NC(=O)[C@H](Cc2ccc(-c3ccccc3)cc2)NC(=O)[C@H](Cc2ccc(C(=O)O)cc2)NC(=O)[C@H](Cc2cccc(C(F)(F)F)c2)NC(=O)[C@H](CC(=O)O)NC(=O)[C@H](Cc2ccc(OCC(=O)O)cc2)NC1=O [Example 1138] ({CH2CO}-S(Me)Y(Carboxymethyl)D[Phe(3-CF3)][Phe(4-COOH)][Bip][Cit][NMeA][dL][Dab][Cha][Val(3-OH)]DC[Dab]-{NH(CH2)12COOH}; thioether N-14)
11.3 | CCC(C)[C@@H]1NC(=O)[C@H](Cc2ccc(-c3ccccc3)cc2)NC(=O)[C@H](CC(C)C)NC(=O)[C@H](Cc2c[nH]c3ccccc23)NC(=O)[C@H](CC(=O)O)NC(=O)[C@H](Cc2ccc(C(=O)O)cc2)NC(=O)[C@H](Cc2ccc(OCC(=O)O)cc2)NC(=O)CSC[C@@H](C(=O)N[C@@H](CC(N)=O)C(=O)NCCOCCOCC(=O)N[C@@H](CCN)C(=O)NCCCCCCCCCCC(=O)O)NC(=O)[C@H](CO)NC(=O)[C@H](C(C)C)NC(=O)[C@H](CC2CCCCC2)NC(=O)[C@H](CCN)NC(=O)[C@@H](CC(C)C)NC(=O)[C@H](C)N(C)C1=O (stereo partly drawn) [Example 2079] ({CH2CO}-Y(Carboxymethyl)[Phe(4-COOH)]DWL[Bip][Ile(3ξ)][NMeA][dL][Dab][Cha]VSCN[AEEA][Dab][Aun]-OH; thioether N-14)
13.2 | CC(C)C[C@@H]1NC(=O)[C@H](Cc2c[nH]c3ccccc23)NC(=O)[C@H](CC(=O)O)NC(=O)[C@H](Cc2ccc(C(=O)O)cc2)NC(=O)[C@H](Cc2ccc(OCC(=O)O)cc2)NC(=O)CSC[C@@H](C(=O)N[C@@H](CCCN)C(=O)NCCOCCOCC(=O)NCCCCCCCCCCC(=O)O)NC(=O)[C@H](CCCN)NC(=O)[C@H](C(C)C)NC(=O)[C@H](CC2CCCCC2)NC(=O)[C@H](CCN)NC(=O)[C@@H](CC(C)C)NC(=O)[C@H](C)N(C)C(=O)[C@H](C(C)C)NC(=O)[C@H](Cc2ccc(-c3ccccc3)cc2)NC1=O [Example 2135] ({CH2CO}-Y(Carboxymethyl)[Phe(4-COOH)]DWL[Bip]V[NMeA][dL][Dab][Cha]V[Orn]C[Orn][AEEA][Aun]-OH; thioether N-14)

same assay, conditions: PE-labeled PD-L1-Ig 20 nM final, Jurkat-hPD-1 cells; read-out: Jurkat HPD1 PDL1 IC50

IC50 [nM] | SMILES
2.7 | CC(=O)NCCCC[C@@H]1NC(=O)[C@H](C(C)(C)O)NC(=O)[C@H](CC2CCCCC2)NC(=O)[C@H](CCN)NC(=O)[C@@H](CC(C)C)NC(=O)[C@H](C)N(C)C(=O)[C@H](CCCNC(N)=O)NC(=O)[C@H](Cc2ccc(-c3ccccc3)cc2)NC(=O)[C@H](Cc2ccc(C(=O)O)cc2)NC(=O)[C@H](Cc2cccc(C(F)(F)F)c2)NC(=O)[C@H](CC(=O)O)NC(=O)[C@H](Cc2ccc(OCC(=O)O)cc2)NC(=O)[C@H](Cc2ccc(OCC(=O)O)cc2)NC(=O)CSC[C@@H](C(=O)N[C@@H](CCN)C(=O)NCCCCCCCCCCC(=O)O)NC1=O [Example 2570] ({CH2CO}-Y(Carboxymethyl)Y(Carboxymethyl)D[Phe(3-CF3)][Phe(4-COOH)][Bip][Cit][NMeA][dL][Dab][Cha][Val(3-OH)]K(Ac)C[Dab][Aun]-OH; thioether N-14)
13.4 | Cc1cccc(C[C@@H]2NC(=O)[C@H](CC(=O)O)NC(=O)[C@H](Cc3ccc(C(=O)O)cc3)NC(=O)[C@H](CCN)NC(=O)CSC[C@@H](C(=O)N[C@@H](CCN)C(=O)NCCOCCOCC(=O)NCCOCCOCC(=O)NCCCCCCCCCCC(=O)O)NC(=O)[C@H](CCC(=O)O)NC(=O)[C@H](C(C)C)NC(=O)[C@H](CC3CCCCC3)NC(=O)[C@H](CCN)NC(=O)[C@@H](CC(C)C)NC(=O)[C@H](C)N(C)C(=O)[C@H](Cc3ccc(C(=O)O)cc3)NC(=O)[C@H](Cc3ccc(-c4ccccc4)cc3)NC(=O)[C@H](Cc3ccc(C(=O)O)cc3)NC2=O)c1 [Example 2521] ({CH2CO}-[Dab][Phe(4-COOH)]D[Phe(3-Me)][Phe(4-COOH)][Bip][Phe(4-COOH)][NMeA][dL][Dab][Cha]VEC[Dab][AEEA][AEEA][Aun]-OH; thioether N-14)
136 | CC(C)C[C@H]1NC(=O)[C@H](C)N(C)C(=O)[C@H](Cc2ccc(C(=O)O)cc2)NC(=O)[C@H](Cc2ccc(-c3ccccc3)cc2)NC(=O)[C@H](Cc2ccc(OCC(=O)O)cc2)NC(=O)[C@H](Cc2cccc(C(F)(F)F)c2)NC(=O)[C@H](CC(=O)O)NC(=O)[C@H](Cc2ccc(OCC(=O)O)cc2)NC(=O)[C@H](Cc2cccs2)NC(=O)CSC[C@@H](C(=O)N[C@@H](CCN)C(=O)NCCCCCCCCCCCCC(=O)O)NC(=O)[C@H](Cc2cnc[nH]2)NC(=O)[C@H](C(C)(C)O)NC(=O)[C@H](CC2CCCCC2)NC(=O)[C@H](CCN)NC1=O [Example 2636] ({CH2CO}-[2Thi]Y(Carboxymethyl)D[Phe(3-CF3)]Y(Carboxymethyl)[Bip][Phe(4-COOH)][NMeA][dL][Dab][Cha][Val(3-OH)]HC[Dab]-{NH(CH2)12COOH}; thioether N-14)
